Data published in ChEMBL document CHEMBL5223100, “Homobivalent, Trivalent, and Covalent PROTACs: Emerging Strategies for Protein Degradation” (J Med Chem, 2022).
pEC50, pIC50: −log10 of the molar value. One block for each molecule: values may come before it.

What was measured:
[1] = Induction of hRpn13Pru degradation in human RPMI-8226 cells; assay type: cell-based
RPMI-8226 [2] = assay: Antiproliferative activity against human RPMI-8226 cells; assay type: functional, cell-based
RPMI-8226 [3] = assay: Induction of hRpn13Pru degradation in human RPMI-8226 cells assessed as maximum degradation at 50 uM relative to control; assay type: cell-based
[4] = target: E3 ubiquitin-protein ligase RNF114 (Homo sapiens, UniProt Q9Y508); assay: Binding affinity to RNF114 (unknown origin)
[5] = target: Serine/threonine-protein kinase Sgk3 (Homo sapiens) (UniProt Q96BR1); assay: Induction of SGK3 degradation in HEK293 cells assessed as maximum degradation after 30 mins relative to control; assay type: cell-based
[6] = target: T1, Phosphatidylinositol 3-kinase catalytic subunit type 3 (Homo sapiens, UniProt Q8NEB9); assay: Induction of VPS34 degradation in HEK293 cells; assay type: cell-based
[7] = target: T1, Phosphatidylinositol 3-kinase catalytic subunit type 3; assay: Induction of VPS34 degradation in HEK293 cells assessed as maximum degradation after 30 mins relative to control; assay type: cell-based
[8] = target: Serine/threonine-protein kinase Sgk3 (Homo sapiens, UniProt Q96BR1); assay: Induction of SGK3 degradation in HEK293 cells; assay type: cell-based
[9] = target: T1, Phosphatidylinositol 3-kinase catalytic subunit type 3; assay: Induction of VPS34 degradation in HEK293 cells assessed as maximum degradation at 300 nM after 48 hrs relative to control; assay type: cell-based
[10] = target: Serine/threonine-protein kinase Sgk3 (Homo sapiens) (UniProt Q96BR1); assay: Induction of SGK3 degradation in HEK293 cells assessed as maximum degradation at 300 nM after 48 hrs relative to control; assay type: cell-based
[11] = target: T2, Bromodomain-containing protein 4 (Homo sapiens, UniProt O60885); assay: Induction of BRD4 long isoform degradation in human 231MFP cells; assay type: cell-based
[12] = target: T2, Bromodomain-containing protein 4; assay: Induction of BRD4 short isoform degradation in human 231MFP cells; assay type: cell-based
HEK293 = assay: Induction of HaloTag7 fused GFP degradation in HEK293 cells assessed as maximum degradation relative to control; assay type: cell-based; details: Homo sapiens
[13] = Induction of HaloTag7 fused GFP degradation in HEK293 cells; assay type: cell-based; details: Homo sapiens
[14] = target: von Hippel-Lindau disease tumor suppressor (Homo sapiens, UniProt P40337); assay: Binding affinity to VHL (unknown origin)
[15] = target: T3, Tyrosine-protein kinase BTK (Homo sapiens, UniProt Q06187); assay: Induction of BTK degradation in human MOLM-14 cells; assay type: cell-based
MOLM-14 = assay: Antiproliferative activity against human MOLM-14 cells; assay type: functional, cell-based
[16] = target: T3, Tyrosine-protein kinase BTK; assay: Induction of BTK degradation in human MOLM-14 cells assessed as maximum degradation at 200 nM relative to control; assay type: cell-based
[17] = Antiproliferative activity against human MINO cells; assay type: functional, cell-based
Protein cereblon = Protein cereblon (Homo sapiens, UniProt Q96SW2); assay: Displacement of dBET6 from CRBN (unknown origin) transfected in BRD4 BD2-GFP mCherry report cells incubated for 5 hrs
[18] = target: Cyclin-dependent kinase 9 (Homo sapiens) (UniProt P50750); assay: Induction of CDK9 degradation in human MOLT-4 cells assessed as maximum degradation after 16 hrs relative to control; assay type: cell-based
CWR22R = assay: Antiproliferative activity against human 22Rv1 cells after 72 hrs; assay type: functional, cell-based; details: 22Rv1, 72 h
PC-3 = assay: Antiproliferative activity against human PC-3 cells after 72 hrs; assay type: functional, cell-based; details: PC-3, 72 h
Hepatitis C virus [19] = assay: Antiviral activity against wild type HCV; assay type: functional, organism-based, Hepacivirus hominis
[20] = Induction of HCV NS3 degradation after 4 hrs; set-up: species or system Hepacivirus hominis
[21] = target: Hepatitis C virus serine protease, NS3/NS4A (Hepatitis C virus, UniProt A3EZI9+D2K2A8); assay: Inhibition of HCV NS3/4a protease in Huh7.5 SGR cells using [Ac-DE-D(Edans)-EE-Abu-[COO]AS-K(Dabcyl)-NH2] as substrate preincubated for 15 mins followed by substrate addition and incubated for 1 hr by FRET assay; assay type: cell-based, Hepacivirus hominis
Hepatitis C virus [22] = assay: Antiviral activity against HCV harboring NS3 V55A mutant; assay type: functional, organism-based, Hepacivirus hominis
[23] = target: T2, Bromodomain-containing protein 4; assay: Induction of BRD4 degradation in HEK293 cells assessed as maximum degradation after 8 hrs relative to control; assay type: cell-based
[24] = target: T2, Bromodomain-containing protein 4; assay: Induction of BRD4 degradation in 231MFP cells; assay type: cell-based
[25] = target: T2, Bromodomain-containing protein 4; assay: Induction of BRD4 degradation in HEK293 cells after 8 hrs; assay type: cell-based
Protein fem-1 homolog B = Protein fem-1 homolog B (Homo sapiens, UniProt Q9UK73); assay: Binding affinity to FEM1B (unknown origin)

Compound: Cc1ncsc1-c1ccc([C@H](C)NC(=O)[C@@H]2C[C@@H](O)CN2C(=O)[C@@H](NC(=O)CCCCc2cn(-c3ccc(C(=O)Nc4cccc(/C=C(\C#N)C(=O)Nc5ccccc5C(=O)O)c4)cc3)nn2)C(C)(C)C)cc1
DC50 [1]: 39000 nM | pIC50 (RPMI-8226 [2]): 5.38 | Emax (RPMI-8226 [3]): 80%

Compound: COC(=O)C[C@H]1[C@]2(C)C3=C(C)[C@H](c4ccoc4-c4ccc(C(=O)NCCCNC(=O)C[C@@H]5N=C(c6ccc(Cl)cc6)C6C(C)=C(C)SC6n6c(C)nnc65)cc4)C[C@H]3O[C@@H]2C2OC(=O)[C@]3(C)C=CC(=O)[C@@]1(C)[C@@H]23 (stereo partly specified)
pIC50 [4]: 6.62

Compound: Cc1ncsc1-c1ccc(CNC(=O)[C@@H]2C[C@@H](O)CN2C(=O)[C@@H](NC(=O)C2(C#N)CC2)C(C)(C)C)c(OCCOCCOCCOCCCCCCCl)c1
Emax [5]: 50% | DC50 [6]: 3 nM | Emax [7]: 50% | DC50 [8]: 3 nM | Emax [9]: 95% | Emax [10]: 95%

Compound: Cc1ncsc1-c1ccc(CNC(=O)[C@@H]2C[C@@H](O)CN2C(=O)[C@H](C(C)C)N2Cc3ccccc3C2=O)c(OCCOCCOCCOCCCCCCCl)c1
Emax (HEK293): 90% | DC50 [13]: 19 nM | pIC50 [14]: 6.27

Compound: CCC[C@H](NC(=O)[C@@H]1[C@H]2CCC[C@H]2CN1C(=O)[C@@H](NC(=O)[C@@H](NC(=O)c1cnc(C(=O)NCCOCCOCCOc2cc3c4c(cccc4c2)C(=O)N(C2CCC(=O)NC2=O)C3=O)cn1)C1CCCCC1)C(C)(C)C)C(=O)C(=O)NC1CC1 (stereo partly specified)
pIC50 (Hepatitis C virus [19]): 6.25 | DC50 [20]: 50 nM | pIC50 [21]: 6.61 | pIC50 (Hepatitis C virus [22]): 6.29

More lines, main results first:

DC50 [11]: 36 nM | DC50 [12]: 14 nM
Compound: Cc1sc2c(c1C)C(c1ccc(Cl)cc1)=N[C@@H](CC(=O)NCCCCOc1ccc(C3CC(c4ccc(Br)cc4)=NN3C(=O)CCl)cc1)c1nnc(C)n1-2 (stereo partly specified)

DC50 [15]: 6.6 nM | pIC50 (MOLM-14): 6.52 | Emax [16]: 81%
Compound: CN(CCCNC(=O)CNc1cccc2c1C(=O)N(C1CCC(=O)NC1=O)C2=O)C(C)(C)/C=C(\C#N)C(=O)N1CCC[C@@H](n2nc(-c3ccc(Oc4ccccc4)cc3)c3c(N)ncnc32)C1 (stereo partly specified)
pIC50 [17]: 7.10

pEC50 (Protein cereblon): 7.10
Compound: C=CC(=O)N1CCN(c2nc(NCCCN3CCN(CCCNc4cccc5c4C(=O)N(C4CCC(=O)NC4=O)C5=O)CC3)nc3c(F)c(-c4cc(O)cc5ccccc45)c(Cl)cc23)CC1 (stereo unspecified)

Emax [18]: 96% | pEC50 (PC-3): 8.19
Compound: COc1cc(/C=C/C(=O)N2CCC=CC2=O)cc(OC)c1OCCN1CCN(C(=O)CN2CCC(C(=O)Nc3ncc(SCc4ncc(C(C)(C)C)o4)s3)CC2)CC1
pEC50 (CWR22R): 8.36

Emax [23]: 94% | DC50 [24]: 198 nM | DC50 [25]: 250 nM | pIC50 (Protein fem-1 homolog B): 5.82
Compound: Cc1sc2c(c1C)C(c1ccc(Cl)cc1)=N[C@@H](CC(=O)NCCCCCNC(=O)CN1CCOc3cc(N(CCC#N)C(=O)CCl)ccc31)c1nnc(C)n1-2
